Experiments:
[1] = system: spleen cells (antibody production, direct PFC count); test: Plaque Forming Cell Assay (inhibition of antibody production); assay type: cell-based, Balb/c strain mice; conditions: Mus musculus, Erythrocyte, 120 h; 10^-6 M; spleen cells of mice sensitized with sheep erythrocytes, cultured 5 days; read-out: Inhibition rate
Experimental: The plaque forming cell assay was carried out by the following manner with reference to the method of Jerne et al. [Science, 140, 405 (1963) ]and the method of Yamamoto et al. [Drugs Experimental Clinical Research, III(1), 5 (1982)].
Male Balb/c strain mice (7-week-old) (Charles River Co.) were sensitized with 1×10^8 sheep erythrocytes (product of Biotest Research Institute) administered via the caudal vein, and the spleens were extirpated after 6 or 7 days after the sensitization. The extirpated spleens were immersed in Hanks' solution (Nissui Seiyaku) to make a cell suspension, which was then filtered, followed by centrifugal separation at 1200 rpm for 5 minutes. After centrifugal separation, the supernatant was discarded and the precipitate was treated with Tris·NH4 Cl solution to remove the erythrocytes, and then washed three times with Hanks' solution. After discarding the supernatant, the cells were suspended in an RPMI-1640 medium (Nissui Seiyaku) containing 10% bovine fetal serum (Gibco Co. ), 50 μg/ml of streptomycin (Meiji Seika), […] of penicillin (Meiji Seika) and 2mercaptoethanol (5×10^-5 M). In each well of a micro culture plate (NUNK Co., Ltd., 24 wells) were put 2 ml of the mixture of the cell suspension containing 1×10^7 of spleen cells, 5×10^6 sheep erythrocytes and a test compound solution (10^-6 M) obtained by diluting the test compound dissolved in dimethylsulfoxide (10^-2 M) with the above mentioned RPMI-1640, and the cells were cultured at 37° C. for 5 days.
After the completion of the culturing, the cells were subjected to centrifugal separation at 2000 rpm for 5 minutes, and the resulting supernatant was removed. The precipitate was suspended in 1 ml of Hanks' solution, again subjected to centrifugal separation, suspended in 1 ml of Hanks' solution, and then, 50 μl of the suspension and 50 μl of sheep erythrocytes were added to 400 μl of 0.25% agarose/Hanks' solution heated to 50° C. in advance, and the mixture was scattered on a glass slide, placed on a plaque assay plate, and together with guinea pig complement (Cedarlene Institute) diluted 40-fold with a phosphate buffer solution, incubated at 37° C. for 1 to 2 hours. The number of the appearing direct plaque cells (direct PFC count) in suspension was counted.
The inhibition rate of the antibody production of the test compound was determined by the following equation. [formula]
The compound used for comparison was 5,6-dihydro-9-fluoro-3-phenylbenz[c]acridine-7-carboxylic acid [Japanese Published Unexamined Patent Application No. 233661/90, hereinafter referred to as Compound (A)]represented by formula (A). [drawing 12]
PFC count in control means PFC count in the absence of the test compound (dimethylsulfoxide alone).

[2] = system: spleen cells (antibody production, direct PFC count); test: as above; assay type: cell-based, Balb/c strain mice; conditions: Mus musculus, Erythrocyte, 120 h, spleen cells of mice sensitized with sheep erythrocytes, cultured 5 days, read-out: Inhibition rate; for inhibition at 10 µM: 10^-5 M; for inhibition at 0.1 µM: 10^-7 M

SMILES: O=C(O)c1c2c(nc3ccc(F)cc13)-c1ccc(-c3ccccc3)cc1CC2 [A, 5,6-dihydro-9-fluoro-3-phenylbenz[c]acridine-7-carboxylic acid, reference compound]
- inhibition at 1 µM [1]: 45.9%
- inhibition at 10 µM [2]: 78.6%

SMILES: O=C(O)c1c2c(nc3ccc(F)cc13)-c1ccc(-c3ccccc3F)cc1CC2 [Compound 2, 5,6-Dihydro-9-fluoro-3-(2-fluorophenyl) ben z [c]acridine-7carboxylicacid]
- inhibition at 1 µM [1]: 94.4%
- inhibition at 10 µM [2]: 99.4%
- inhibition at 0.1 µM [2]: 57.1%

SMILES: O=C(O)c1c2c(nc3ccc(F)cc13)-c1ccc(-c3ccccc3F)cc1CCC2 [Compound 3, 6,7-Dihydro-10-fluoro-3-(2-fluorophenyl) -5Hbenzo [6, 7]cyclohepta [1,2-b]quinoline-8-carboxylic acid]
- inhibition at 1 µM [1]: 80.3%
- inhibition at 10 µM [2]: 83.5%
- inhibition at 0.1 µM [2]: 55.4%

SMILES: CC1Cc2c(nc3ccc(F)cc3c2C(=O)O)-c2ccc(-c3ccccc3F)cc21 (centres unmarked) [Compound 5, 5,6-Dihydro-9-fluoro-3-(2-fluorophenyl)-5methylbenz[c]acridine-7-carboxylicacid]
- inhibition at 1 µM [1]: 64.6%
- inhibition at 10 µM [2]: 98.7%

SMILES: CC1(C)Cc2c(nc3ccc(F)cc3c2C(=O)O)-c2ccc(-c3ccccc3F)cc21 [Compound 7]
- inhibition at 1 µM [1]: 75.3%
- inhibition at 10 µM [2]: 98.1%

SMILES: CC1Cc2cc(-c3ccccc3F)ccc2-c2nc3ccc(F)cc3c(C(=O)O)c21 (centres unmarked) [Compound 8]
- inhibition at 1 µM [1]: 80.2%
- inhibition at 10 µM [2]: 98.7%
